Assay results published in PubChem BioAssay (NCI).
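Test compounds were applied to cells in 96-well plates for 48 hours at 5 doses. GI50: concentration for 50% inhibition of growth. TGI is the concentration that stops growth completely.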

Key:
Assay in all cases: NCI tumour cell line growth inhibition, 48 h
T-47D breast = tested on: T-47D breast
MCF7 breast = tested on: MCF7 breast
NCI/ADR-RES ovarian = tested on: NCI/ADR-RES ovarian
MDA-N = tested on: MDA-N
LXFL 529 NSCLC = tested on: LXFL 529 NSCLC
DMS 273 small cell lung = tested on: DMS 273 small cell lung
RXF-631 renal = tested on: RXF-631 renal
HOP-18 NSCLC = tested on: HOP-18 NSCLC
XF 498 CNS = tested on: XF 498 CNS

| Structure (SMILES) | GI50 (T-47D breast) | TGI (T-47D breast) | GI50 (MCF7 breast) | TGI (MCF7 breast) | GI50 (NCI/ADR-RES ovarian) | TGI (NCI/ADR-RES ovarian) | TGI (LXFL 529 NSCLC) | TGI (DMS 273 small cell lung) | TGI (HOP-18 NSCLC) | also measured |
| --- | --- | --- | --- | --- | --- | --- | --- | --- | --- | --- |
| C[C@]12CC[C@@H]3c4ccc(O)cc4CC[C@H]3[C@@H]1CC[C@@H]2NS(=O)(=O)c1cccc(C(F)(F)F)c1 | 3.65 µM | 13.4 µM | 2720 nM | 8.49 µM | 3730 nM | 16.9 µM |  |  |  |  |
| O=C(CCCCCCSc1nc(-c2ccccc2)cc(-c2ccccc2)n1)NO | 1.86 µM | 8.21 µM | 1310 nM | 15.9 µM | 699 nM | 6.15 µM |  |  |  |  |
| C/C(=C\c1ccn(-c2ccc(N)c(F)c2)n1)[C@@H]1C[C@@H]2O[C@]2(C)CCC[C@H](C)[C@H](O)[C@@H](C)C(=O)C(C)(C)[C@@H](O)CC(=O)O1 | 0.0249 µM | > 50 µM | 6.01 nM | > 50 µM | 94.3 nM | > 50 µM |  |  |  |  |
| N=c1c2c(-c3ccccc3)c(-c3ccccc3)n(Cc3ccccc3)c2ncn1CCCO | 3.13 µM | 18.1 µM | 472 nM | 2.07 µM | 1330 nM | 17.6 µM |  |  |  |  |
| NC(=O)c1oc([N+](=O)[O-])c(-c2ccccc2)c1-c1ccccc1 |  | 50.3 µM |  | > 100 µM |  | 57.2 µM |  |  |  |  |
| COc1ccc(-c2cc(-c3ccccc3)nc(N3CCN(CCNc4ccnc5cc(Cl)ccc45)CC3)n2)cc1 | 1.55 µM | 3.73 µM | 1710 nM | 3.45 µM | 1720 nM | 4.04 µM |  |  |  |  |
| CN(CC(=O)O)c1ccc(/C=C/c2ccnc3ccccc23)cc1 |  | > 100 µM |  | 35.2 µM |  | > 100 µM |  |  |  | TGI (MDA-N): 53.9 µM |
| O=c1c2cc(Br)ccc2nc(-c2ccccc2Cl)n1NCC1(O)OCC(O)C(O)C1O (centres undefined) |  |  |  |  |  |  | > 100 µM | > 100 µM |  |  |
| CN(C)CCNC(=O)c1ccc(C(=O)NCCN(C)C)c2nc3ccccc3cc12 |  |  |  |  |  |  | 12.3 µM | 4.76 µM | 25.4 µM | TGI (RXF-631 renal): 14.8 µM |
| O=C(O)C12C3C4C1C1C2C3C1(Br)C41OCCO1 (centres undefined) |  |  |  |  |  |  | > 100 µM | > 100 µM | > 100 µM | TGI (XF 498 CNS): > 100 µM |
| C[C@H]1[C@H](C)CC[C@]2(C(=O)N3CCN(C)CC3)CC[C@]3(C)C(=CC[C@@H]4[C@@]5(C)C/C(=C/c6cccnc6)C(=O)C(C)(C)[C@@H]5CC[C@]43C)[C@H]12 | 0.511 µM | 2.16 µM |  |  |  |  |  |  |  |  |
| N#Cc1cccc(C(=O)Nc2cccc(NC(=O)c3cccc(C#N)c3)c2)c1 | > 100 µM | > 100 µM | 90900 nM | > 100 µM | 95700 nM | > 100 µM |  |  |  |  |
| CC(C)C[C@H](NC(=O)[C@H]1O[C@@H]1C(=O)O)C(=O)NCCc1ccc(O)cc1 | > 100 µM | > 100 µM | > 100000 nM | > 100 µM | > 100000 nM | > 100 µM |  |  |  |  |
| CCCCCCC#Cc1ccccc1C#CCO | 16.3 µM | 35.1 µM | 32800 nM | > 100 µM | 18700 nM | 34.4 µM |  |  |  |  |
| CC(/C(=N/NC(=O)C(N)=O)c1c(Cl)ccc(Cl)c1O)C1(O)C(=O)Nc2ccccc21 (centres undefined) |  |  |  |  |  |  | > 100 µM | > 100 µM | > 100 µM | TGI (RXF-631 renal): > 100 µM |
| O/N=C/c1cc2c(cc1Br)OCO2 |  |  |  |  |  |  | > 100 µM | > 100 µM | > 100 µM | TGI (RXF-631 renal): > 100 µM |
| COc1ccc(-c2cnnn2-c2cc(OC)c3c(c2)OCO3)cc1 |  |  | 46.3 nM | > 100 µM | 40.3 nM |  |  |  |  |  |
| O=C1C=C[C@@]23C[C@@H](Nc4c(O)c5c6c(c42)=NCCC=6C=N5)SC3=C1 | 2.96 µM | 7.47 µM | 2000 nM | 4.04 µM | 2880 nM | 10.1 µM | 3.24 µM | 8.37 µM | 28.1 µM | TGI (MDA-N): 3.1 µM; GI50 (XF 498 CNS): 2340 nM; TGI (XF 498 CNS): 4.95 µM; GI50 (HOP-18 NSCLC): 14.8 µM; GI50 (DMS 273 small cell lung): 2420 nM |
| COc1ccc(C/C(C)=C(\c2ccc(OCCN3CCOCC3)cc2)c2ccc(OC(=O)Cc3ccccc3)cc2)cc1 | 0.483 µM | 1.28 µM | 574 nM | 1.54 µM | 961 nM | 12.5 µM |  |  |  |  |
| CS(=O)(=O)OCCn1cnc2nc(NC(=O)c3ccccc3)[nH]c(=O)c21 |  |  |  |  |  |  | > 100 µM | > 100 µM | > 100 µM | TGI (RXF-631 renal): > 100 µM |
| COc1cc(C(O)c2nc3ccccc3s2)cc(OC)c1OC (centres undefined) | 17.3 µM | > 100 µM | 41300 nM | > 100 µM | 8960 nM | > 100 µM |  |  |  |  |
| COc1ccc(-c2nnc(SCC(=O)Nc3ccc(/C(C)=N\O)cc3)n2-c2ccccc2)cc1OC | 9.45 µM | > 100 µM | > 100000 nM | > 100 µM | > 100000 nM | > 100 µM |  |  |  |  |
| Nc1ncnc2c1ncn2CC(O)C(=O)O (centres undefined) |  | > 100 µM |  | > 100 µM |  | > 100 µM | > 100 µM | > 100 µM | > 100 µM | TGI (MDA-N): > 100 µM |
| CC(=O)Nc1ccc(/C=N\N2C(=O)c3ccccc3C2=O)cc1 |  |  |  |  |  |  | > 100 µM | > 100 µM | > 100 µM | TGI (XF 498 CNS): > 100 µM |
| CCCCCCCCCCC(O)[C@H]1CCC(C2CC[C@H]([C@H](O)CCCCCCCCCCC(O)CC3=CC(C)OC3=O)O2)O1 (some centres undefined) |  |  |  | 4.44 µM |  | 2.11 µM | 9.79 µM | 4.4 µM |  | TGI (RXF-631 renal): 8.13 µM |
| CCCCCCCCC(=O)N(C)C1C2CN3CCC(O2)C13 (centres undefined) |  |  |  |  |  |  | > 100 µM | > 100 µM | > 100 µM |  |
| Cc1ccc(/C=C2/SC(Nc3nc(-c4nc(NC5=NC(=O)/C(=C\c6ccc(C)cc6)S5)sc4C)c(C)s3)=NC2=O)cc1 | 22.3 µM | > 50 µM | 1010 nM | > 50 µM | 435 nM | > 12.7 µM |  |  |  |  |
| O=C1Nc2ccccc2C1Cc1ccc([N+](=O)[O-])cc1 (centres undefined) |  | > 100 µM |  | > 100 µM |  | > 100 µM |  |  |  | TGI (MDA-N): > 100 µM |
| Cc1nc2cnc3cc(F)c(-c4ccc(Oc5ncccn5)cc4Cl)cc3c2n1[C@H]1CCN(C(=O)CO)C[C@@H]1F | 36 µM | > 100 µM | 6510 nM | > 58.2 µM | 8380 nM | 49 µM |  |  |  |  |
